Legend:
EED (1-441)-His protein = EED (1-441)-His protein (Homo sapiens (Human), UniProt O75530); test: EED-H3K27Me3 peptide competition binding assay by AlphaScreen; settings: EED Alphascreen binding Qualified assay
[1] = target: wild type PRC2 (wtPRC2) complex (Homo sapiens (Human), UniProt O75530); test: EED LC-MS assay; type: biochemical; settings: EED LC-MS Qualified assay; read-out: (b) IC50
Method: EED LC-MS Assay Representative compounds of the present invention were serially and separately diluted 3-fold in DMSO to obtain a total of eight or twelve concentrations. […] A 6 μL solution of 3 μM of the peptide substrate H3K27Me0 (histone H3[21-44]-biotin) in reaction buffer was added to initiate each reaction. […] The data were then fit to a dose response equation using the program Helios to get the IC50 values of the test compound.

[2] = test system: H3K27 methylation in G401 cell; test: ELISA (H3K27 methylation) assay; type: cell-based; settings: Homo sapiens, G-401, ELISA Qualified assay, 48 h, read-out: (c) IC50
How it was run: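 G401 cells given 3-fold serial dilutions (eight or twelve points, top 20 μM) for 48 h. Lysate ELISA for H3K27 methylation normalized to H3 signal, % inhibition versus DMSO, IC50 from dose-response fit.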

Chain of wild type PRC2 (wtPRC2) complex (O75530 whole entry): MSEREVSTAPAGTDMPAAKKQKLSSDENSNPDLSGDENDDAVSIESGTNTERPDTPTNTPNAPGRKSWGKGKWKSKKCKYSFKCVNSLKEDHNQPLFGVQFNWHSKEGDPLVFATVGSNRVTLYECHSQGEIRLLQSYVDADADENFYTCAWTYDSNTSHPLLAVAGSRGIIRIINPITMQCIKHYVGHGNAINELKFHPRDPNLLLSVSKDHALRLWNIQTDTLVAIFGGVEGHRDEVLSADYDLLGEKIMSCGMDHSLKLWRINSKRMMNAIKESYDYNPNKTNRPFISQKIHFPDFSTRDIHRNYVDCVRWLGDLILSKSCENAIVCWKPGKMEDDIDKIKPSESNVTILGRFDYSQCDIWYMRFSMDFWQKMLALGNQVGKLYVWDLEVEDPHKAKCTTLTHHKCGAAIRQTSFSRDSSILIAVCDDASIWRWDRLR
Chain of wild type PRC2 (wtPRC2) complex (Q15910 whole entry partner): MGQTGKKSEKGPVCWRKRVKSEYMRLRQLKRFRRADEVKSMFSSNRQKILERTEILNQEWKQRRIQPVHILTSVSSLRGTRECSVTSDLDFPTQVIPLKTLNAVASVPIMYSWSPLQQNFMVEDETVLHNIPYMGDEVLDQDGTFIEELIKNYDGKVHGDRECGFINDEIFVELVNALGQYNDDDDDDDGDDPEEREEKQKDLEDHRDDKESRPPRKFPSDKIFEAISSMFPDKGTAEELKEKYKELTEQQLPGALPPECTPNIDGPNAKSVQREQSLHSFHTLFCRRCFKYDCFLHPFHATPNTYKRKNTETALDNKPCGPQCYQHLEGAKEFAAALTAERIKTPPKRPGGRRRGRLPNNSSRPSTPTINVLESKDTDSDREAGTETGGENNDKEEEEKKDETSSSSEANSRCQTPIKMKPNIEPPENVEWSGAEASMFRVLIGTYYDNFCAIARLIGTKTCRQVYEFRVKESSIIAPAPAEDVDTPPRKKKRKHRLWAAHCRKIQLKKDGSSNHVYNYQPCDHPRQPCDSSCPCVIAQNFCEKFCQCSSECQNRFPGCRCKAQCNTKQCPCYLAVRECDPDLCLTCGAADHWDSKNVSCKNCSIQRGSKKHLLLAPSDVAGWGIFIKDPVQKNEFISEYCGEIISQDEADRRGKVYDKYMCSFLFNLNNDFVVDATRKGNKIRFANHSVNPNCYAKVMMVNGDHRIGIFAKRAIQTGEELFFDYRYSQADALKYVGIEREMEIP
Chain of wild type PRC2 (wtPRC2) complex (Q15022 whole entry partner): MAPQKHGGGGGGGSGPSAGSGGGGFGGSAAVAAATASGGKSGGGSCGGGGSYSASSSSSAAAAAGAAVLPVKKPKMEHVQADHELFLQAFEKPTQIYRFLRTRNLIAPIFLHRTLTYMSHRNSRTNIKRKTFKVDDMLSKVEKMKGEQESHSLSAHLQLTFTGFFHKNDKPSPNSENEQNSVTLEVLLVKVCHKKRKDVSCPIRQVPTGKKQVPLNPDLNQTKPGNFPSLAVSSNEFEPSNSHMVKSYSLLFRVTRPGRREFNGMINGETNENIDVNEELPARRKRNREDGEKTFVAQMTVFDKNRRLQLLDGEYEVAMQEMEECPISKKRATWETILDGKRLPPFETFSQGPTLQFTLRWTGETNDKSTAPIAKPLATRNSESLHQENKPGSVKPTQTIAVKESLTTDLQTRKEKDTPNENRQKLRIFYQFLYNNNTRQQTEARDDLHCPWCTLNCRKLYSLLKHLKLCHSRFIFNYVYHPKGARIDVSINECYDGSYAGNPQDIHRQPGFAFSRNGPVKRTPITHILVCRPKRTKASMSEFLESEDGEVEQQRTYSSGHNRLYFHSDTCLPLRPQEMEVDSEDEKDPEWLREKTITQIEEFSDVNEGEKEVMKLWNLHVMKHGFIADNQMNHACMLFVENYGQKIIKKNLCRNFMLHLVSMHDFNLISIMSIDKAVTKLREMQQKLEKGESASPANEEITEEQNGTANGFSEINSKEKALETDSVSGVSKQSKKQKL
Chain of EED (1-441)-His protein (O75530 whole entry): as the sequence (O75530 whole entry) above

SMILES | IC50 (EED (1-441)-His protein) | IC50 [1] | IC50 [2]
CCOC(=O)c1ncn2c(NCc3c(F)cccc3OC)ncc(-c3cnc(C)nc3C)c12 [Example 98, ethyl 8-(2,4-dimethylpyrimidin-5-yl)-5-((2-fluoro-6-methoxybenzyl)amino)imidazo[1,5-c]pyrimidine-1-carboxylate] | 24 nM | 24.8 nM | 31.6 nM
CCOC(=O)c1ncn2c(NCc3cc(OC)c(F)cc3F)ncc(-c3ccc(S(C)(=O)=O)cc3)c12 [Example 7, Ethyl 5-((2,4-difluoro-5-methoxybenzyl)amino)-8-(4-(methylsulfonyl)phenyl)imidazo[1,5-c]pyrimidine-1-carboxylate] | 16.8 nM | 16.8 nM | 236 nM
CN(C)Cc1ccc(-c2cnc(NCc3cccc4occc34)n3cncc23)cc1 [Example 64, N-(benzofuran-4-ylmethyl)-8-(4-((dimethylamino)methyl)phenyl)imidazo[1,5-c]pyrimidin-5-amine] | 55.4 nM | 54.7 nM | 403 nM
Cc1ncc(-c2cnc(NCc3c(F)ccc4c3CCO4)n3cnc(-c4ncco4)c23)c(C)n1 [Example 11, 8-(2,4-dimethylpyrimidin-5-yl)-N-((5-fluoro-2,3-dihydrobenzofuran-4-yl)methyl)-1-(oxazol-2-yl)imidazo[1,5-c]pyrimidin-5-amine] | 12.6 nM | 17.1 nM | 6.9 nM
Cc1ccc(-c2ncn3c(NCc4c(F)ccc5c4CCO5)ncc(-c4cnc(C)nc4C)c23)cn1 [Example 114, 8-(2,4-dimethylpyrimidin-5-yl)-N-((5-fluoro-2,3-dihydrobenzofuran-4-yl)methyl)-1-(6-methylpyridin-3-yl)imidazo[1,5-c]pyrimidin-5-amine] | 8.4 nM | 31.9 nM | 22.8 nM
N#Cc1ncn2c(NCc3c(F)ccc4c3CCO4)ncc(Br)c12 [Example 70, 8-bromo-5-(((5-fluoro-2,3-dihydrobenzofuran-4-yl)methyl)amino)imidazo[1,5-c]pyrimidine-1-carbonitrile] | 27.9 nM | 48.6 nM | 86.8 nM
Cc1nc(C(F)(F)CN2CCCC2)ccc1-c1cnc(NCc2c(F)ccc3c2CCO3)n2cncc12 [Example 59, 8-(6-(1,1-difluoro-2-(pyrrolidin-1-yl)ethyl)-2-methylpyridin-3-yl)-N-((5-fluoro-2,3-dihydrobenzofuran-4-yl)methyl)imidazo[1,5-c]pyrimidin-5-amine] | 13 nM | 25.5 nM | 98.7 nM
Cc1nn(CCO)c(C)c1-c1cnc(NCc2c(F)ccc3c2CCO3)n2cncc12 [Example 49, 2-(4-(5-(((5-fluoro-2,3-dihydrobenzofuran-4-yl)methyl)amino)imidazo[1,5-c]pyrimidin-8-yl)-3,5-dimethyl-1H-pyrazol-1-yl)ethan-1-ol] | 7.9 nM | 13.5 nM | 20.4 nM
N#Cc1ncn2c(NCc3c(F)ccc4c3CCO4)ncc(-n3ccnc3)c12 [Example 119, 5-(((5-fluoro-2,3-dihydrobenzofuran-4-yl)methyl)amino)-8-(1H-imidazol-1-yl)imidazo[1,5-c]pyrimidine-1-carbonitrile] | 18.1 nM | 44.7 nM | 18.8 nM
CC(=O)N1CCN(c2ccc(-c3cnc(NCc4c(F)ccc5c4CCO5)n4cnc(C#N)c34)cn2)CC1 [Example 87, 8-(6-(4-acetylpiperazin-1-yl)pyridin-3-yl)-5-(((5-fluoro-2,3-dihydrobenzofuran-4-yl)methyl)amino)imidazo[1,5-c]pyrimidine-1-carbonitrile] | 17 nM | 29.7 nM | 13.4 nM
Cc1ncccc1-c1cnc(NCc2c(F)ccc3c2CCO3)n2cnc(C(=O)NCCO)c12 [Example 107, 5-(((5-fluoro-2,3-dihydrobenzofuran-4-yl)methyl)amino)-N-(2-hydroxyethyl)-8-(2-methylpyridin-3-yl)imidazo[1,5-c]pyrimidine-1-carboxamide] | 7.7 nM | 6.9 nM | 25.6 nM
CS(=O)(=O)c1ccc(-c2cnc(NCc3c(F)ccc4c3CCO4)n3cnc(C#N)c23)cn1 [Example 79, 5-(((5-fluoro-2,3-dihydrobenzofuran-4-yl)methyl)amino)-8-(6-(methylsulfonyl)pyridin-3-yl)imidazo[1,5-c]pyrimidine-1-carbonitrile] | 5.3 nM | 16.7 nM | 6.6 nM
CC(C)S(=O)(=O)c1ccc(-c2cnc(NCc3c(F)ccc4c3CCO4)n3cncc23)cc1 [Example 30, N-((5-fluoro-2,3-dihydrobenzofuran-4-yl)methyl)-8-(4-(isopropylsulfonyl)phenyl)imidazo[1,5-c]pyrimidin-5-amine] | 7.7 nM | 11.1 nM | 19.5 nM
Cc1nc(C(=O)N(C)C)ccc1-c1cnc(NCc2c(F)ccc3c2CCO3)n2cncc12 [Example 63, 5-(5-(((5-fluoro-2,3-dihydrobenzofuran-4-yl)methyl)amino)imidazo[1,5-c]pyrimidin-8-yl)-N,N,6-trimethylpicolinamide] | 9.5 nM | 26.7 nM | 61.8 nM
OCCc1ccc(-c2cnc(NCc3c(F)ccc4c3CCO4)n3cncc23)cn1 [Example 34, 2-(5-(5-(((5-fluoro-2,3-dihydrobenzofuran-4-yl)methyl)amino)imidazo[1,5-c]pyrimidin-8-yl)pyridin-2-yl)ethan-1-ol] | 21.7 nM | 40.1 nM | 59.5 nM
N#Cc1ncn2c(NCc3c(F)ccc4c3CCO4)ncc(-c3ccc(N4CCOCC4)nc3)c12 [Example 82, 5-(((5-fluoro-2,3-dihydrobenzofuran-4-yl)methyl)amino)-8-(6-morpholinopyridin-3-yl)imidazo[1,5-c]pyrimidine-1-carbonitrile] | 8.3 nM | 18.1 nM | 6.8 nM
Cc1cn(-c2cnc(NCc3c(F)ccc4c3CCO4)n3cncc23)cn1 [Example 62, N-((5-fluoro-2,3-dihydrobenzofuran-4-yl)methyl)-8-(4-methyl-1H-imidazol-1-yl)imidazo[1,5-c]pyrimidin-5-amine] | 3.7 nM | 6.6 nM | 13.2 nM
Cc1cnccc1-c1cnc(NCc2c(F)ccc3c2CCO3)n2cncc12 [Example 36, N-((5-fluoro-2,3-dihydrobenzofuran-4-yl)methyl)-8-(3-methylpyridin-4-yl)imidazo[1,5-c]pyrimidin-5-amine] | 7.6 nM | 17.9 nM | 51.3 nM
Cc1ncccc1-c1ncn2c(NCc3c(F)ccc4c3CCO4)ncc(-c3ccc(S(C)(=O)=O)cc3)c12 [Example 112, N-((5-fluoro-2,3-dihydrobenzofuran-4-yl)methyl)-1-(2-methylpyridin-3-yl)-8-(4-(methylsulfonyl)phenyl)imidazo[1,5-c]pyrimidin-5-amine] | 10.5 nM | 12.1 nM | 13.1 nM
CC(=O)c1ncn2c(NCc3c(F)ccc4c3CCO4)ncc(-c3cnc(C)nc3C)c12 [Example 16, 1-(8-(2,4-Dimethylpyrimidin-5-yl)-5-(((5-fluoro-2,3-dihydrobenzofuran-4-yl)methyl)amino)-imidazo[1,5-c]pyrimidin-1-yl)ethan-1-one] | 9.1 nM | 17.5 nM | 7.6 nM
Cc1ncc(-c2cnc(NCc3c(F)ccc4c3CCO4)n3cncc23)c(C)n1 [Example 1, 8-(2,4-Dimethylpyrimidin-5-yl)-N-((5-fluoro-2,3-dihydrobenzofuran-4-yl)methyl)imidazo[1,5-c]pyrimidin-5-amine] | 7.2 nM | 13.2 nM | 24.8 nM
CN1CCc2ccc(-c3cnc(NCc4c(F)ccc5c4CCO5)n4cncc34)cc2C1 [Example 26, N-((5-fluoro-2,3-dihydrobenzofuran-4-yl)methyl)-8-(2-methyl-1,2,3,4-tetrahydroisoquinolin-7-yl)imidazo[1,5-c]pyrimidin-5-amine] | 50.3 nM | 41.5 nM | 54.1 nM
Cc1nc(C(F)(F)CO)ccc1-c1cnc(NCc2c(F)ccc3c2CCO3)n2cncc12 [Example 56, 2,2-difluoro-2-(5-(5-(((5-fluoro-2,3-dihydrobenzofuran-4-yl)methyl)amino)imidazo[1,5-c]pyrimidin-8-yl)-6-methylpyridin-2-yl)ethan-1-ol] | 4.8 nM | 18.2 nM | 20.9 nM
COc1cc(CNc2ncc(-c3cccnc3C)c3c(C#N)ncn23)c(F)cc1F [Example 89, 5-((2,4-difluoro-5-methoxybenzyl)amino)-8-(2-methylpyridin-3-yl)imidazo[1,5-c]pyrimidine-1-carbonitrile] | 29.6 nM | 42.5 nM | 195 nM

From US10676479B2, “Imidazolepyridine compounds and uses thereof” (Novartis AG, priority 2016, dated 2020)
